In patent publication US6495570B2, “Combination drug therapy for glycolipid storage diseases” (G. D. Searle & Co., priority 1999, dated 2002):
Several values for one entry are separate records, joined by “and”; a condition that tells them apart may be missing. Equal values may be shown once.

Key:
[1] = system: glycolipid biosynthesis; conditions: cited from earlier work
[2] = cited from earlier work
[3] = system: glycolipid biosynthesis in Chinese hamster ovary (CHO) cells; assay: Inhibition of glycolipid biosynthesis in CHO cells (radiolabelled palmitic acid, TLC, scanning densitometry); format: cell-based; conditions: for IC50: Cricetulus griseus, range quoted for variability of the radiolabelled products, read-out: IC50, inhibition of glycolipids (glucosylceramide and lactosylceramide bands)
Procedure: (§1) Cells were cultured for four days in the presence of radiolabelled palmitic acid and the following concentrations of compound:
(§2) After extraction the radioactively labelled glycolipids were separated by TLC and visualized by radioautography. NB-DNJ is N-butyl-DNJ. NN-DNJ is N-nonyl-DNJ.
(§3) Chinese Hamster Ovary (CHO) cells and human myeloid (HL-60) cells grown in the presence of varying concentrations of inhibitor in addition to a precursor (radiolabelled palmitic acid) of glycolipid biosynthesis were treated with solvents to extract the glycolipids by the procedure described by Platt et al., J. Biol. Chem. 269, 8362-8365 (1994).
(§4) The radiolabelled lipids were separated by TLC (FIG. 1) and bands corresponding to glucosylceramide and lactosylceramide were quantitated by scanning densitometry to estimate the reduction in glycolipid biosynthesis.
(§5) Table 1. […] Radiolabelled glucosylceramide and lactosylceramide bands from FIG. 1 were quantitated by scanning densitometry and the percentage of control (no treatment, track a, FIG. 1) expressed in comparison to compound dose. From the linear curve, an IC50 value was obtained. A range of values is quoted to represent variability of the radiolabelled products.

[4] = system: glycolipid biosynthesis in human myeloid (HL-60) cells; assay: Inhibition of glycolipid biosynthesis in HL-60 cells (radiolabelled palmitic acid, TLC, scanning densitometry); format: cell-based; conditions: for IC50: Homo sapiens, range quoted for variability of the radiolabelled products, read-out: IC50, inhibition of glycolipids (glucosylceramide and lactosylceramide bands)
Procedure: as §1, §2, §3, §4, §5

[5] = system: human immunodeficiency virus (HIV); conditions: cited from earlier work
[6] = Organ distribution of radiolabelled compound after oral gavage in the normal mouse; format: in vivo
Procedure: Mouse body fluids and organs were collected for different times (30, 60, 90 minutes) after gavage with radiolabelled compound. Radioactivity in each sample was determined and expressed as a percentage of radioactivity recovered. Solid bars, NN-DNJ, hatched bars, NB-DNJ.
Further evidence that longer alkyl chains are taken up-much better than the shorter alkyl chains has been obtained by in vivo studies with mouse.
Table 2. Recovery of radiolabelled compounds after administration in the normal mouse. Mouse body fluids and organs were collected at different times after gavage with radiolabelled compound. Radioactivity in each sample was determined and expressed as a percentage of radioactivity recovered (data from FIG. 5).

[7] = mice, oral 4800 mg/Kg/day; cited from earlier work
[8] = system: Hepatitis B virus (HBV); conditions: based on inhibition of alpha-glucosidases in the ER; cited from earlier work
[9] = system: CHO, MDBK and HepG2 cells; assay: Uptake of radiolabelled compound into cultured cells (cell-associated radioactivity); format: in vitro ADME; conditions: incubated up to 24 hours
Procedure: FIG. 5 is a bar graph of estimated radioactivity. […] Cells were extensively washed and acid precipitated. After solution in NaOH, cell associated radioactivity was determined as a percentage of radiolabelled compound added.
The activity is explained by the differential uptake into cells.

Row | Compound | dose required for activity against glycolipid biosynthesis [1] [mg/mL] | IC50 [3] [µM] | IC50 ([4]; HL-60 cells) [µM] | % recovered, Brain ([6]; 30 min after gavage, mouse) [%] | % recovered, Liver ([6]; 30 min after gavage, mouse) [%] | % recovered, Brain ([6]; 60 min after gavage, mouse) [%] | % recovered, Liver ([6]; 60 min after gavage, mouse) [%] | % recovered, Brain ([6]; 90 min after gavage, mouse) [%] | % recovered, Liver ([6]; 90 min after gavage, mouse) [%] | other results
1 | CN1C[C@H](O)[C@@H](O)[C@H](O)[C@H]1CO [N-methyl analog] |  |  |  |  |  |  |  |  |  | activity against glycolipid biosynthesis [1]: inactive
2 | CCCCCCN1C[C@H](O)[C@@H](O)[C@H](O)[C@H]1CO [N-hexyl derivative of DNJ] | 0.2 |  |  |  |  |  |  |  |  | 
3 | CCCCN1C[C@H](O)[C@@H](O)[C@H](O)[C@H]1CO [N-butyl-DNJ, N-butyl-1,5-dideoxy-1,5-imino-D-glucitol] | 0.01 to 0.1 | 25 to 50 | 1.8 to 7.3 | 0.2 | 8.5 | 0.1 | 2.8 | 0.03 | 0.9 | time of treatment to steady-state plasma concentration ([2]; clinical trial): 4-6 weeks; peak plasma concentration ([2]; oral, 100 mg three times daily, listed as ND-DNJ): 6.8 μM and 1.5 μg/ml; effectiveness as an inhibitor of HIV versus the N-ethyl analog [5]: three log orders more effective; effectiveness as an inhibitor of HIV versus the N-methyl analog [5]: more than two log orders more effective; stable serum concentration [7]: 50 µM
4 | CCCCCCCCCCN1C[C@H](O)[C@@H](O)[C@H](O)[C@H]1CO [N-decyl-DNJ] |  |  |  |  |  |  |  |  |  | inhibition at times lower concentrations than N-butyl-DNJ ([4]; HL-60 cell-based assay): 50 times
5 | CCCCCCCCCN1C[C@H](O)[C@@H](O)[C@H](O)[C@H]1CO [N-nonyl-DNJ, N-nonyl-1,5-dideoxy-1,5-imino-D-glucitol] |  | 2 to 2.7 | 0.02 to 0.4 | 0.4 | 27.1 | 0.3 | 12.6 | 0.4 | 13.5 | inhibition of the Hepatitis B virus (HBV) [8]: effective; inhibition of glycolipid biosynthesis, better than N-butyl-DNJ at equivalent concentrations [3]: about ten- to about twenty-fold better; inhibition of glycolipid biosynthesis, better than N-butyl-DNJ at equivalent concentrations ([4]; HL-60 cells): about four hundred times better; radioactivity recovered in the liver and brain, higher than N-butyl-DNJ ([6]; after 90 min, oral gavage, mouse): 10 fold; uptake into the brain versus N-butyl-DNJ ([6]; tests of organ distribution): five times better; cell-associated radioactivity, increase versus N-butyl-DNJ [9]: 3.5-5.0 fold
